{
  "source": "patent US20020160990A1",
  "about": "“PHYTOSTEROL AND/OR PHYTOSTANOL DERIVATIVES” (priority 1998, published 2002)",
  "key": {"[1]": {"test": "Solubility in Swiss rapeseed oil at room temperature by incremental addition of oil", "assay_type": "physicochemical", "excerpt": "The minimum starting ratio was about 1:1, and trials were discontinued at above 10:1."}, "male Fisher rats [2]": {"system": "male Fisher rats", "test": "Effects of phytosterol esters on plasma triglycerides in rats on high fat diet", "assay_type": "in vivo, rat", "details": "for plasma triglycerides, Week 0 Means ± SD: Week 0 (pretreatment baseline), high fat diet, n=6; for plasma triglycerides, Week 2 Means ± SD: Week 2 of 2% (wt/wt) lipid in high fat diet; for plasma triglycerides, % change from pretreatment, Week 2: Week 2 vs week 0; for plasma triglycerides, Week 4 Means ± SD: Week 4 of 2% (wt/wt) lipid in high fat diet; for plasma triglycerides, % change from pretreatment, Week 4: Week 4 vs week 0", "excerpt": "(§1) Thirty male Fisher rats, weighing 177±14 g, were maintained on a high fat diet (Table 1) during the 2 weeks preceding treatment. They were then randomly divided into five experimental groups consisting of 6 animals each. The control group (Group 1) remained on the high fat diet used during the 2-week pretreatment period. For the other experimental diets, in order to have isocaloric diets and an equal amount of fat in all the experimental diets, 2% (wt/wt) of the fat content of the control diet (1% coconut oil and 1% corn oil) was replaced by 2% (wt/wt) of the following lipids:\n(§2) The rats were allowed free access to water and feed, and they were maintained on a 12-hour light-dark cycle. The feed in the cages was replaced daily, all unconsumed material discarded and food intake measured. Blood samples (1 ml) were taken by retroorbital puncture at the start of the experimental period (week 0) and after 2 weeks of treatment (week 2). After 4 weeks, the animals were sacrificed by withdrawing blood from the vena cava under Isoflurane anesthesia. Blood was collected into tubes containing […] as an anticoagulant.\n(§3) Plasma was prepared from the heparinized blood by immediate centrifugation at 1600 g for 10 minutes at 4° C. Assays of plasma cholesterol, triglycerides, and HDL-cholesterol (precipitation method) were determined enzymatically on a COBASFARA analyzer (Roche Diagnostica, Switzerland). Non-HDL cholesterol was calculated by difference. The fatty acid composition of the diets was analyzed by gas chromatography.\n(§4) All data are expressed as means±SD (standard deviation) for animals in each diet group. The mean differences between dietary groups were analyzed by one-way analysis of covariance (ANCOVA) with subsequent Dunnet's test for multiple comparison against a control group (Group 1 and/or Group 2). The covariate adjusted for was the value of the corresponding parameter at the start of the treatment period (week 0). All tests were performed at the 5%-level and 95%-confidence intervals were calculated."}, "male Fisher rats [3]": {"system": "male Fisher rats", "test": "Effects of phytosterol esters on lipoproteins (HDL and non-HDL cholesterol) in rats on high fat diet", "assay_type": "in vivo, rat", "details": "time point not given; for Non HDL cholesterol Means: calculated by difference; for HDL Cholesterol Means: precipitation method", "excerpt": "as §1, §2, §3, §4"}, "male Fisher rats [4]": {"system": "male Fisher rats", "test": "Effects of phytosterol esters on plasma total cholesterol in rats on high fat diet", "assay_type": "in vivo, rat", "details": "for plasma total cholesterol, Week 0 Means ± SD: Week 0 (pretreatment baseline), high fat diet, n=6; for plasma total cholesterol, Week 2 Means ± SD: Week 2 of 2% (wt/wt) lipid in high fat diet; for plasma total cholesterol, % change from pretreatment, Week 2: Week 2 vs week 0; for plasma total cholesterol, Week 4 Means ± SD: Week 4 of 2% (wt/wt) lipid in high fat diet; for plasma total cholesterol, % change from pretreatment, Week 4: Week 4 vs week 0", "excerpt": "as §1, §2, §3, §4"}, "[5]": {"details": "Swiss rapeseed oil, room temperature"}, "[6]": {"details": "Swiss rapeseed oil, room temperature, minimum starting ratio about 1:1, discontinued above 10:1"}},
  "note": "Where two headings read alike, the source gives them in different places. Marks after values point to notes of the source that are not given here.",
  "data": [
    {"molecule": "CC/C=C\\C/C=C\\C/C=C\\C/C=C\\C/C=C\\CCCC(=O)OCC", "note": "[EPA ethyl ester 90%, EPA ethyl ester]", "values": [
      {"measurement": "Solubility (in words)", "setting": "[1]; [5]", "result": "miscible"},
      {"measurement": "Solubility g oil/g material", "setting": "[1]; [6]", "result": ">1", "unit": "g oil/g material"}
    ]},
    {"molecule": "CCC=CCC=CCC=CCC=CCC=CCC=CCCC(=O)OC1CC[C@@]2(C)C(CC[C@H]3[C@@H]4CC[C@H]([C@H](C)CC[C@@H](CC)C(C)C)[C@@]4(C)CC[C@@H]32)C1", "note": "(some centres unmarked) [Group 3, sitostanol-DHA ester]", "values": [
      {"measurement": "plasma triglycerides, Week 0 Means ± SD", "setting": "male Fisher rats [2]", "result": "1.25 ± 0.26"},
      {"measurement": "plasma triglycerides, Week 2 Means ± SD", "setting": "male Fisher rats [2]", "result": "0.83 ± 0.13^b"},
      {"measurement": "plasma triglycerides, % change from pretreatment, Week 2", "setting": "male Fisher rats [2]", "result": "−34", "unit": "%"},
      {"measurement": "plasma triglycerides, Week 4 Means ± SD", "setting": "male Fisher rats [2]", "result": "0.74 ± 0.15^b,c"},
      {"measurement": "plasma triglycerides, % change from pretreatment, Week 4", "setting": "male Fisher rats [2]", "result": "−41", "unit": "%"},
      {"measurement": "Non HDL cholesterol Means", "setting": "male Fisher rats [3]", "result": "0.75 ± 0.21^a"},
      {"measurement": "HDL Cholesterol Means", "setting": "male Fisher rats [3]", "result": "0.49 ± 0.10^b"},
      {"measurement": "plasma total cholesterol, Week 0 Means ± SD", "setting": "male Fisher rats [4]", "result": "2.90 ± 0.58"},
      {"measurement": "plasma total cholesterol, Week 2 Means ± SD", "setting": "male Fisher rats [4]", "result": "1.79 ± 0.37^b"},
      {"measurement": "plasma total cholesterol, % change from pretreatment, Week 2", "setting": "male Fisher rats [4]", "result": "−38", "unit": "%"},
      {"measurement": "plasma total cholesterol, Week 4 Means ± SD", "setting": "male Fisher rats [4]", "result": "1.23 ± 0.26^b"},
      {"measurement": "plasma total cholesterol, % change from pretreatment, Week 4", "setting": "male Fisher rats [4]", "result": "−58", "unit": "%"}
    ]},
    {"molecule": "CC/C=C\\C/C=C\\C/C=C\\C/C=C\\C/C=C\\CCCC(=O)O[C@H]1CC[C@@]2(C)C(=CC[C@H]3[C@@H]4CC[C@H]([C@H](C)/C=C/[C@@H](CC)C(C)C)[C@@]4(C)CC[C@@H]32)C1", "note": "[Group 4, stigmasterol-EPA ester]", "values": [
      {"measurement": "plasma triglycerides, Week 0 Means ± SD", "setting": "male Fisher rats [2]", "result": "0.98 ± 0.15"},
      {"measurement": "plasma triglycerides, Week 2 Means ± SD", "setting": "male Fisher rats [2]", "result": "0.81 ± 0.19^b"},
      {"measurement": "plasma triglycerides, % change from pretreatment, Week 2", "setting": "male Fisher rats [2]", "result": "−17", "unit": "%"},
      {"measurement": "plasma triglycerides, Week 4 Means ± SD", "setting": "male Fisher rats [2]", "result": "0.83 ± 0.13^b,c"},
      {"measurement": "plasma triglycerides, % change from pretreatment, Week 4", "setting": "male Fisher rats [2]", "result": "−15", "unit": "%"},
      {"measurement": "Non HDL cholesterol Means", "setting": "male Fisher rats [3]", "result": "1.07 ± 0.26^a,b"},
      {"measurement": "HDL Cholesterol Means", "setting": "male Fisher rats [3]", "result": "0.53 ± 0.08"},
      {"measurement": "plasma total cholesterol, Week 0 Means ± SD", "setting": "male Fisher rats [4]", "result": "2.97 ± 0.49"},
      {"measurement": "plasma total cholesterol, Week 2 Means ± SD", "setting": "male Fisher rats [4]", "result": "1.94 ± 0.12^b"},
      {"measurement": "plasma total cholesterol, % change from pretreatment, Week 2", "setting": "male Fisher rats [4]", "result": "−35", "unit": "%"},
      {"measurement": "plasma total cholesterol, Week 4 Means ± SD", "setting": "male Fisher rats [4]", "result": "1.61 ± 0.25^b"},
      {"measurement": "plasma total cholesterol, % change from pretreatment, Week 4", "setting": "male Fisher rats [4]", "result": "−46", "unit": "%"}
    ]},
    {"molecule": "CC/C=C\\C/C=C\\C/C=C\\C/C=C\\C/C=C\\C/C=C\\CCC(=O)OCC", "note": "[docosahexaenoic acid ethyl ester 90%, docosahexaenoic acid ethyl ester]", "values": [
      {"measurement": "Solubility (in words)", "setting": "[1]", "result": "miscible"},
      {"measurement": "Solubility g oil/g material", "setting": "[1]", "result": ">1", "unit": "g oil/g material"}
    ]},
    {"molecule": "CC[C@H](CC[C@@H](C)[C@H]1CC[C@H]2[C@@H]3CC[C@H]4C[C@@H](O)CC[C@]4(C)[C@H]3CC[C@]12C)C(C)C", "note": "[stigmastanol]", "values": [
      {"measurement": "Solubility (in words)", "setting": "[1]; [5]", "result": "insoluble"},
      {"measurement": "Solubility g oil/g material", "setting": "[1]; [6]", "result": ">10", "unit": "g oil/g material"}
    ]},
    {"molecule": "CC/C=C\\C/C=C\\C/C=C\\C/C=C\\C/C=C\\C/C=C\\CCC(=O)O[C@H]1CC[C@@]2(C)C(=CC[C@H]3[C@@H]4CC[C@H]([C@H](C)/C=C/[C@@H](CC)C(C)C)[C@@]4(C)CC[C@@H]32)C1", "note": "[stigmasterol docosahexaenoate]", "values": [
      {"measurement": "Solubility (in words)", "setting": "[1]; [5]", "result": "miscible"},
      {"measurement": "Solubility g oil/g material", "setting": "[1]; [6]", "result": ">1", "unit": "g oil/g material"}
    ]},
    {"molecule": "CCC=CCC=CCC=CCC=CCC=CCCCC(=O)OC1CCC2(C)C(=CCC3C2CCC2(C)C(C(C)C=CC(CC)C(C)C)CCC32)C1", "note": "(centres unmarked) [stigmasterol eicosapentenoate, Stigmasterol eicosapenatenoate]", "values": [
      {"measurement": "Solubility (in words)", "setting": "[1]; [5]", "result": "miscible"},
      {"measurement": "Solubility g oil/g material", "setting": "[1]; [6]", "result": ">1", "unit": "g oil/g material"}
    ]},
    {"molecule": "CC[C@H](/C=C/[C@@H](C)[C@H]1CC[C@H]2[C@@H]3CC=C4C[C@@H](O)CC[C@]4(C)[C@H]3CC[C@]12C)C(C)C", "note": "[stigmasterol]", "values": [
      {"measurement": "Solubility (in words)", "setting": "[1]; [5]", "result": "insoluble"},
      {"measurement": "Solubility g oil/g material", "setting": "[1]; [6]", "result": ">10", "unit": "g oil/g material"}
    ]},
    {"molecule": "Stigmastanol docosahexaenoate", "values": [
      {"measurement": "Solubility (in words)", "setting": "[1]; [5]", "result": "miscible"},
      {"measurement": "Solubility g oil/g material", "setting": "[1]; [6]", "result": ">1", "unit": "g oil/g material"}
    ]}
  ]
}
